Assay results from a melting point compilation (Tetko et al.; mined from patent text by program, amines drawn as free bases though some values may be those of a salt).

Row | Structure (SMILES) | melting point [°C]
1 | CCCCCCCCCCCCCCCCCCOc1ccc(OCCCOc2ccc(OCc3ccccc3)cc2)c(C(=O)O)c1 | 92 to 95
2 | CNc1nc(Nc2ccc(Cl)c(Cl)c2)ncc1NS(C)(=O)=O | 263 to 266
3 | O=C(Cc1ccc(Cl)c(Cl)c1)c1ccc(Cl)cc1 | 99 to 103
4 | CC1(C)COC(=O)N1c1nc(-c2csc(C#N)c2)cs1 | 249 to 252
5 | CCN(C)c1cc(C)nc(Oc2c(C)cc(C)cc2C)c1C | 173 to 174
6 | COc1cc2c(c3c1OC(C)(C)C3)C(c1cccc(C(=O)Nc3c(Cl)cncc3Cl)c1)=NC(C)(C)C2 | 227 to 228
7 | CCOC(=O)C1=CCCC[C@H]1S(=O)(=O)Nc1ccc(F)cc1Cl | 47 to 49
8 | Cc1cc(=O)[nH]c(=O)n1C1OC(CO)C(O)C1O (centres undefined) | 175 to 177
9 | CC(=O)NC[C@H]1CN(c2ccc(N3C[C@H]4CN(C(=O)CO)C[C@H]4C3)c(F)c2)C(=O)O1 | 167 to 168
10 | CCC(O)(CC)CCN1CCC(c2noc3cc(F)ccc23)CC1 | 50 to 53
11 | Cc1nc(C)c(-c2ccnc(Nc3cccc(S(=O)(=O)NCCO)c3)n2)s1 | 184 to 186
12 | CNC(=C[N+](=O)[O-])NCCCCc1ccc(CN(C)C)s1 | 104 to 106
13 | O=C(Nc1ccc(Br)cc1)Nc1cc(C(F)(F)F)ccc1Oc1ccccc1C(=O)O | 229 to 231
14 | CCOCc1nc2c(N)nc3cc(-c4cccnc4)ccc3c2n1CCCCS(N)(=O)=O | 250 to 252
15 | Nc1ccc2cccc(N3CCNCC3)c2c1 | 184 to 186
16 | CCOC(=O)C(C)(C)n1c(=O)[nH]c2ccc(Cl)cc2c1=O | 179 to 180
17 | COC(=O)C=C(CC(=O)OC)NCc1ccccc1 | 67 to 69
18 | O=C(CC(=O)C1CC1)c1ncc(Cl)cc1Cl | 50.2 to 52.7
19 | CC(=O)OC12CC3CC(CC(C3)C1)C2 | 144 to 145
20 | CSC(=O)c1c(C(F)F)nc(C(F)(F)F)c(C(=O)SC)c1NC(C)C | 92 to 94
21 | CC(C)N(C(=S)ON1C(=O)c2ccccc2C1=O)C(C)C | 73 to 75
22 | O=C1SCc2c1cccc2[N+](=O)[O-] | 128 to 133
23 | O=C(CCc1cccc2c1NC(=O)CO2)CCc1cccc2c1NC(=O)CO2 | 183 to 185

Row | Structure (SMILES) | melting point [°C]
24 | CCCCCCCCCCC[C@@H]1CC(O)=CC(=O)O1 | 86 to 87
25 | Cc1cn2nc(S(=O)(=O)Cl)nc2nc1C | 116 to 120
26 | COc1cc2c(C)c(C#N)c(SC)nc2cc1OC(C)=O | 225 to 230
27 | N=C(N)NCCCCC(=O)Nc1ccc(OCc2ccccc2)c(C(=O)NCCC(=O)O)c1 | 242 to 245
28 | CC(C)(C)c1ccc(C=C(SC(=Cc2ccc(C(C)(C)C)cc2)S(=O)(=O)c2ccccc2)S(=O)(=O)c2ccccc2)cc1 | 57 to 58
29 | COCCOCc1c(CO)sc2c(=O)c(C(=O)NCc3ccc(Cl)cc3)cn(C)c12 | 167 to 168
30 | CCN(CC)C(=O)CC1CCN(Cc2cnc3cc(NC(=O)c4ccc(-c5ccc(F)cc5)cc4)c(C)cc3c2)CC1 | 197
31 | Cc1c(C)c2c(c(C)c1NC(=O)CC(C)(C)C)C(c1ccc(C(C)C)cc1)C1(CCCC1)O2 (centres undefined) | 209 to 210
32 | CC(OC(=O)Nc1ccccc1)c1ccccc1[N+](=O)[O-] (centres undefined) | 74 to 75
33 | Cc1c(C(F)(F)F)n[nH]c1-c1ccc(Cl)cc1 | 139
34 | N#Cc1cc(N=Nc2cc(Cl)ccc2Cl)ccc1N | 250
35 | Fc1nc(NCc2cccnc2)c2nc[nH]c2n1 | 218 to 220
36 | CCOc1cccc(CC(=O)O)c1OCCCc1cn(-c2ccc(C(F)(F)F)cn2)nc1OCC | 114 to 115
37 | COc1cccc(CCC(=O)O)c1OCCCc1cn(-c2ccc(C(F)(F)F)cn2)nc1C(C)C | 112 to 113
38 | CCCCCCCCCCCCCCCCCc1nnc2n1-c1sc(CC)cc1C(c1ccc(C)cc1)=NC2 | 78 to 80
39 | NCCc1c(Br)[nH]c2ccc3c(=O)[nH]ccc3c12 | 252
40 | Cc1ccc2c(c1)C=Cc1cc(C)ccc1C2c1cn(-c2ccnc(NCC(=O)O)n2)c(=O)[nH]c1=O | 260 to 263
41 | CCC(C)CNNC(=O)c1cc(N)cc(C(=O)NNCC(C)CC)c1 (centres undefined) | 162 to 163
42 | Cc1cc(C)cc(Sc2c(C(C)C)c(=O)[nH]c(=O)n2CCC2CC=CC2)c1 | 128 to 129
43 | O=C(c1ccccc1)c1ccc(SC(Cl)(Cl)Cl)cc1 | 62 to 63
44 | CCOc1cc2c(cc1OCC)C(C(C#N)SCCCO)=NCC2 (centres undefined) | 100 to 105
45 | CC(C)c1cccc2c1O[C@@H](C(C)C)C(=O)N2 | 151 to 152
46 | Cc1ccc(SC2OC(COC(=O)c3ccccc3)C(O)C(OC(=O)c3ccccc3)C2OC(=O)c2ccccc2)cc1 (centres undefined) | 197

Row | Structure (SMILES) | melting point [°C]
47 | COc1c(N2CC(C)C(NC3CC3)C(C)C2)c(F)c(N)c2c(=O)c(C(=O)O)cn(C3CC3)c12 (centres undefined) | 248
48 | CCOC(=O)C(C)c1ccc2oc(C(=O)c3ccc(Cl)cc3)nc2c1 (centres undefined) | 66 to 67
49 | CCCCCCCCCCCCCC(=O)NCCOCCn1c(CCOC)nc2c(N)nc3ccccc3c21 | 85 to 87
50 | O=C(O)Cc1cc(C(=O)c2ccc(F)cc2)ccc1O | 218
51 | O=c1[nH]c2cccc3c2n1CCC3 | 216
52 | CCCCCCCNC(=O)Nc1ccc(N(C)C)cc1C(=O)NC1CCN(C(c2ccccc2)c2ccccc2)CC1 | 204 to 206
53 | Cc1ccc(-c2nc(Cc3cccc(CC(CO)CO)c3)c(C)o2)cc1 | 114 to 115
54 | Cn1ncnc1COc1nn2c(-c3cc(CF)on3)nnc2c2ccccc12 | 250 to 252
55 | Cn1c2c(c(=O)n(-c3cc(C(=O)O)c(Cl)cc3F)c1=O)CCC2 | 270 to 273
56 | CNc1nc(S(=O)(=O)Nc2c(Cl)cccc2Cl)n[nH]1 | 285 to 287
57 | OC1CCCCCC1n1cncn1 (centres undefined) | 85 to 86
58 | CNC(=O)C(Br)CCBr (centres undefined) | 48 to 49
59 | CS(=O)(=O)c1ccc(-c2cnn(CC(F)(F)F)c(=O)c2OCc2ccco2)cc1 | 113 to 115
60 | O=C(O)CN(CC(=O)O)CC(CO)C(=O)O (centres undefined) | 195
61 | CCc1cc(CSCCNC(=C[N+](=O)[O-])NC)oc1CN(C)C | 91
62 | On1c(C(F)(F)F)nc2ncc(Cl)cc21 | 264 to 266
63 | N[C@@H](CC(=O)c1ccc2oc3ccccc3c2c1)C(=O)O | 182 to 187
64 | CC(=O)SCCC(=O)N1N=C(c2ccc(S(N)(=O)=O)cc2)CC1C(=O)O (centres undefined) | 183 to 185
65 | C[C@@H](N)C(=O)N(O)C(=O)OC(C)(C)C | 115 to 117
66 | CCCCc1nc(C(=O)C(C)C)c(C#N)n1Cc1ccc(-c2ccccc2-c2nnnn2C(c2ccccc2)(c2ccccc2)c2ccccc2)cc1 | 115 to 116
67 | CCSc1nc2c(cc1F)c(=O)c(C(=O)O)cn2CC | 219 to 221

The next lines start with the values.

Row | melting point [°C] | Structure (SMILES)
68 | 170 to 171 | CS(=O)(=O)c1ccc(-c2cnn(CCc3ccccc3)c(=O)c2-c2ccc(F)cc2)cc1
69 | 217 to 220 | CC(C)Cc1n[nH]c2c1c(=O)n(-c1ccccc1)c1ncccc21
70 | 122 to 124 | COc1ccc([C@@H]2CN(C)CC[C@@H]2NC(=O)c2cccc(C(F)(F)F)c2)cc1OC (relative stereo)
71 | 54 to 55 | O=S(=O)(Oc1ccc2ccccc2c1-c1nnc(Cl)c2ccccc12)C(F)(F)F
72 | 142 to 143 | COc1ccc2c(c1)C(CCNC(=O)c1ccc(Br)cc1)CC2 (centres undefined)
73 | 253 to 255 | COc1ccc(-c2nc(C(=O)NC(=N)N)sc2-c2ccc(OC)cc2)cc1
74 | 110 to 112 | CNc1cnc(N(Cc2ccccc2)C(=O)OCc2ccccc2)cc1-c1ccccc1C
75 | 174 to 176 | O=[N+]([O-])CS(=O)c1cccc2c1oc1ccccc12 (centres undefined)
76 | 45 to 47 | O=C(O)CCCCCCN(Cc1ccccc1)C(=O)c1cn2c3c(cccc13)CCC2
77 | 160 | COc1cccc(C(=O)c2cccc(C(=O)O)c2)c1
78 | 118 to 119 | CCOC(=O)c1cc(C)n(-c2cccc(Br)c2)c1-c1ccccc1
79 | 167 to 170 | CN1CC(CCCl)Oc2c(ccc3ccccc23)C1=S (centres undefined)
80 | 97 to 98 | CC(C)Cc1nn(C)c(=O)c2cc(Cc3ccccc3)sc12
81 | 195 to 197 | Cc1cc(=O)[nH]c2ccc(OCCCN3CCN(Cc4ccc(Cl)cc4)CC3)cc12
82 | 51.2 to 51.5 | CCN(CC)Cc1ccc2nc(-c3ccccc3F)cc(OCc3ccccc3)c2c1
83 | 97.2 | COCCNc1ccc(CN2CCN(C(c3ccccc3)c3ccccc3)CC2)cc1[N+](=O)[O-]

Row | melting point [°C] | Structure (SMILES)
84 | 175 to 177 | CCCc1ccc2c(c1)C(=O)N(c1ccc(C(C)C(=O)O)cc1)C2 (centres undefined)
85 | 142 to 144 | O=C(O)c1cnccc1CCCOc1cccnc1Oc1cccc(Cl)c1
86 | 106 | Cc1cccc(N2CCN(CCc3c(C)nc4c(C)cccn4c3=O)CC2)c1
87 | 138 to 139 | Cc1nn(-c2ccc(C(F)(F)F)cn2)cc1COc1ccc(OCC(=O)O)cc1
88 | 142 to 143 | CCOc1nn(Cc2ccc(OCCc3nc(-c4ccccc4)oc3C)cc2)cc1CCC(=O)O
89 | 204 to 205 | CC1=C(C(=O)Nc2ccccc2)SC2=NCCN21
90 | 172 to 173 | CCc1ccc(Cn2c(C)nc3ccc(C(=O)OC)nc32)c(Cl)c1
91 | 65 to 77 | NC1=NC(c2ccc(OC(F)(F)F)cc2)(c2cccc(CCC3CC3)c2)C2=NCCCN12 (centres undefined)
92 | 120 to 121 | CN(Cc1ccccc1)C(=O)c1cnc2c([N+](=O)[O-])cccc2c1Cl
93 | 82 to 83 | CCCCCCCCCCc1ccc(C(=O)NOCc2ccccc2)cc1
94 | 81 to 82 | CCOC(=O)CO[C@H]1CC[C@H](CCN(C(=O)c2ccccc2)S(=O)(=O)c2ccc(Cl)cc2)CC1
95 | 87.5 to 88 | COc1ccc(-n2nc(CCCO)cc2-c2ccc(Cl)cc2)cc1
96 | 188 to 189 | CC(C)(C)OC(=O)N1CCN(c2cccc3c2c(Br)cn3S(=O)(=O)c2ccccc2)CC1
97 | 220 to 221 | Oc1ccc2cc(-c3cc4ccccc4s3)ccc2c1Cl
98 | 105 to 107 | COc1ccc2c(c1)N(Cc1ccccc1)C(=O)C1CCCC1=N2 (centres undefined)
99 | 106 | CC(O)(c1ccccc1)c1cc(Cl)ccc1O (centres undefined)
